#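 The compound was tested at five concentrations on cells cultured in 96-well plates, with a 48-hour exposure period. GI50 marks 50% less growth.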 Active and inactive are the calls of the source. No stated cut-off is given here; in the data, active = GI50 up to about 1.1 µM and inactive = higher.
# How the values were obtained:
# Test in all cases: NCI-60 cell line screen, 48 h
# SK-OV-3 = tested on: SK-OV-3
# SN12C = tested on: SN12C
# OVCAR-8 = tested on: OVCAR-8
# NCI-H226 = tested on: NCI-H226
# Hs-578T = tested on: Hs-578T
# OVCAR-5 = tested on: OVCAR-5
# NCI-H460 = tested on: NCI-H460
# HOP-92 = tested on: HOP-92
# SF-539 = tested on: SF-539
# SR = tested on: SR
# OVCAR-4 = tested on: OVCAR-4
# KM12 = tested on: KM12
# TK-10 = tested on: TK-10
# SK-MEL-28 = tested on: SK-MEL-28
# UO-31 = tested on: UO-31
# SNB-19 = tested on: SNB-19
# HOP-62 = tested on: HOP-62
# PC-3 = tested on: PC-3
# K562 = tested on: K562
# Malme-3M = tested on: Malme-3M
# MDA-MB-435 = tested on: MDA-MB-435
# 786-0 = tested on: 786-0
# A549 = tested on: A549
# MDA-MB-231 = tested on: MDA-MB-231
# NCI/ADR-RES = tested on: NCI/ADR-RES
# HCT-116 = tested on: HCT-116
# UACC-257 = tested on: UACC-257
# HT-29 = tested on: HT-29
# IGROV-1 = tested on: IGROV-1
# A498 = tested on: A498
# SF-295 = tested on: SF-295
# HCC 2998 = tested on: HCC 2998
# RPMI-8226 = tested on: RPMI-8226
# CAKI-1 = tested on: CAKI-1
# MDA-N = tested on: MDA-N
# NCI-H23 = tested on: NCI-H23
# HCT-15 = tested on: HCT-15
# NCI-H522 = tested on: NCI-H522
# BT-549 = tested on: BT-549
# U-251 = tested on: U-251
# MCF7 = tested on: MCF7
# ACHN = tested on: ACHN
# M14 = tested on: M14
# LOX IMVI = tested on: LOX IMVI
# EKVX = tested on: EKVX
# T47D = tested on: T47D
# OVCAR-3 = tested on: OVCAR-3
# UACC-62 = tested on: UACC-62
# SK-MEL-5 = tested on: SK-MEL-5
# SF-268 = tested on: SF-268
# COLO 205 = tested on: COLO 205
# HL-60 = tested on: HL-60
# SW-620 = tested on: SW-620
# SK-MEL-2 = tested on: SK-MEL-2
# CCRF-CEM = tested on: CCRF-CEM
smiles,measurement,setting,value
O=C(O[C@H](/C=C/c1ccccc1)P1(=O)N(Cc2ccccc2)[C@H]2CCCC[C@@H]2N1Cc1ccccc1)c1ccccc1,GI50,SK-OV-3,5.85 µM (inactive)
same,GI50,SN12C,3.15 µM (inactive)
same,GI50,OVCAR-8,3.69 µM (inactive)
same,GI50,NCI-H226,2.33 µM (inactive)
same,GI50,Hs-578T,9.31 µM (inactive)
same,GI50,OVCAR-5,4.94 µM (inactive)
same,GI50,NCI-H460,3.72 µM (inactive)
same,GI50,HOP-92,1.99 µM (inactive)
same,GI50,SF-539,3.72 µM (inactive)
same,GI50,SR,3.35 µM (inactive)
same,GI50,OVCAR-4,1.49 µM (inactive)
same,GI50,KM12,3.41 µM (inactive)
same,GI50,TK-10,> 100 µM (inactive)
same,GI50,SK-MEL-28,8.83 µM (inactive)
same,GI50,UO-31,4.61 µM (inactive)
same,GI50,SNB-19,5.31 µM (inactive)
same,GI50,HOP-62,5.51 µM (inactive)
same,GI50,PC-3,3.58 µM (inactive)
same,GI50,K562,4.2 µM (inactive)
same,GI50,Malme-3M,2.89 µM (inactive)
same,GI50,MDA-MB-435,3.05 µM (inactive)
same,GI50,786-0,3.7 µM (inactive)
same,GI50,A549,3.7 µM (inactive)
same,GI50,MDA-MB-231,3.49 µM (inactive)
same,GI50,NCI/ADR-RES,3.05 µM (inactive)
same,GI50,HCT-116,2.79 µM (inactive)
same,GI50,UACC-257,9.84 µM (inactive)
same,GI50,HT-29,3.8 µM (inactive)
same,GI50,IGROV-1,3.21 µM (inactive)
same,GI50,A498,7.48 µM (inactive)
same,GI50,SF-295,3.74 µM (inactive)
same,GI50,HCC 2998,8.18 µM (inactive)
same,GI50,RPMI-8226,3.42 µM (inactive)
same,GI50,CAKI-1,2.17 µM (inactive)
same,GI50,MDA-N,3.52 µM (inactive)
same,GI50,NCI-H23,3.51 µM (inactive)
same,GI50,HCT-15,3.22 µM
same,GI50,NCI-H522,3.48 µM (inactive)
same,GI50,BT-549,5.56 µM (inactive)
same,GI50,U-251,4.01 µM (inactive)
same,GI50,MCF7,3.51 µM (inactive)
same,GI50,ACHN,4.56 µM (inactive)
same,GI50,M14,4.5 µM (inactive)
same,GI50,LOX IMVI,3.32 µM (inactive)
same,GI50,EKVX,4.56 µM (inactive)
same,GI50,T47D,0.877 µM (active)
same,GI50,OVCAR-3,3.94 µM (inactive)
same,GI50,UACC-62,5.33 µM (inactive)
same,GI50,SK-MEL-5,1.87 µM (inactive)
same,GI50,SF-268,4.12 µM (inactive)
same,GI50,COLO 205,1.68 µM (inactive)
same,GI50,HL-60,2.95 µM (inactive)
same,GI50,SW-620,3.72 µM (inactive)
same,GI50,SK-MEL-2,2.39 µM (inactive)
same,GI50,CCRF-CEM,3.48 µM (inactive)

# From ChEMBL document CHEMBL1201862, “PubChem BioAssay data set” (2004)
